Our source for the IC50 values is patent US8399486B2, “Benzenesulfonyl compounds and the use thereof” (Purdue Pharma L.P., priority 2007, dated 2013).

pIC50: −log10 of the molar value.

For test [1], the target named is T1, L-type calcium channel (LTCC) (Rattus norvegicus, UniProt P22002).
T1 construct: expressed in transfected cells; pcDNA6.2DEST α1c, pcDNA3.2DEST β1, pcDNA3.1-Zeo α2δ)
Nature of the test: FLIPR calcium mobilization assay for L-type calcium channel. It counts as cell-based. Particulars: calcium mobilization in vitro assay, HEK293 cells expressing recombinant rat LTCC subunits (α1c, α2δ, β1), 90 mM KCl. As to the method: Recombinant human embryonal kidney cells (HEK293, ATCC) stably transfected with either N-type calcium channel (NTCC) subunits (α1b, α2δ, and β3) or L-type calcium channel (LTCC) subunits (α1c, α2δ, and β1) were routinely cultured in growth medium consisting of Dulbecco's Modified Eagles Medium containing 10% FBS, 100 U/mL penicillin, 100 μg/mL streptomycin, 4 mM L-glutamine, 500 μg/mL geneticin (G418), 20 μg/mL Blasticidin S (InVivogen, San Diego, Calif.) and 500 μg/mL zeocin (InVivogen).
FLIPR Calcium Mobilization Assay for L-type Calcium Channel. One day prior to performing this assay, HEK293 cells stably expressing recombinant rat L-type calcium channel (LTCC) subunits (α1c, α2δ, and β1) were trypsinized, then seeded on poly-D-lysine-coated 96-well clear-bottom black plates (Becton Dickinson, Franklin Lakes, N.J.) at 75,000 cells/well. On the day of the assay, the plates were washed with LTCC wash buffer (127 mM NaCl, 2 mM MgCl2, 700 μM NaH2PO4, 5 mM CaCl2, 5 mM NaHCO3, 8 mM HEPES, 10 mM glucose, pH 7.4), then loaded with 0.1 mL of LTCC wash buffer containing Fluo-4 (3 μM final concentration, Molecular Probes, Eugene, Oreg.). After 1 hour, the cells were washed with 0.1 mL LTCC wash buffer and resuspended in 0.05 mL LTCC assay buffer (same composition as LTCC wash buffer). Plates were then transferred to a FLIPR^96 for assay. The FLIPR measured basal Fluo-4 fluorescence for 15 seconds, then added 0.05 mL of each compound tested diluted in LTCC assay buffer at final concentrations ranging from about 846 pM to about 17 μM. Fluo-4 fluorescence was then measured for 5 minutes. 0.1 mL KCl agonist dissolved in LTCC assay buffer was then added to the cells to produce a final concentration of 90 mM KCl, and fluorescence was measured for another 45 seconds. Data were collected over the entire time course and analyzed using Excel, Graph Pad Prism, or an in-house regression analysis software.
L-type Recombinant Cell Line Development. L-type calcium channel expressing HEK-293 cells were created in two stages. Stage 1 was created as follows. The rat α1c, and β1 cDNA expression constructs (2.5 μg each) were co-transfected into human embryonic kidney (HEK-293) cells by Lipofectamine Plus reagent (Invitrogen), as per manufacturer's instructions. 24 hours later, cells were split in limiting dilution into multiple 96-well plates in selection media containing 20 μg/mL blasticidin and 500 μg/mL geneticin, and incubated for 3 weeks at 37° C., 5% CO2, 95% humidity. […] The FLIPR measured basal Fluo-4 fluorescence for 315 seconds, then added 0.1 mL KCl agonist dissolved in LTCC buffer and measured fluorescence for another 45 seconds. […] Data were collected over the entire time course and analyzed using Excel, Graph Pad Prism, or Activity Base software. […]
On the technique in general: Calcium assays in cells follow changes in intracellular calcium, usually with a dye or a luminescent sensor.

Test [2] concerns the target T2, N-type calcium channel (NTCC) (Homo sapiens, UniProt Q00975).
T2 construct: endogenous in cells; host or cells: IMR32 cells (ATCC), differentiated with dibutyryl cAMP and bromodeoxyuridine
Put plainly: FLIPR calcium mobilization assay for N-type calcium channel. It counts as cell-based. The conditions noted are these: calcium mobilization in vitro assay, differentiated IMR32 cells, 90 mM KCl, 5 μM nitrendipine. As for the experimental part: Cell maintenance and differentiation. Unless noted otherwise, cell culture reagents were purchased from Mediatech of Herndon, Md. IMR32 cells (American Type Culture Collection, ATCC, Manassas, Va.) were routinely cultured in growth medium consisting of minimum essential medium containing 10% fetal bovine serum (FBS, Hyclone, Logan, Utah), 100 U/mL penicillin, 100 μg/mL streptomycin, 2 mM L-glutamine, 1 mM sodium pyruvate, and 1×MEM non-essential amino acids. 80-90% confluent flasks of cells were differentiated using the following differentiation medium: Growth medium plus 1 mM dibutyryl cyclic AMP (Sigma, St. Louis, Mo.), and 2.5 μM bromodeoxyuridine (Sigma). Cells were differentiated for 8 days by replacing differentiation medium every 2-3 days.
FLIPR Calcium Mobilization Assay for N-type Calcium Channel. One day prior to performing this assay, differentiated IMR32 cells were treated with 1× CellStripper, and seeded on poly-D-lysine-coated 96-well clear-bottom black plates (Becton Dickinson, Franklin Lakes, N.J.) at 200,000 cells/well. On the day of the assay, the cell plates were washed with IMR32 buffer (127 mM NaCl, 1 mM KCl, 2 mM MgCl2, 700 μM NaH2PO4, 5 mM CaCl2, 5 mM NaHCO3, 8 mM HEPES, 10 mM glucose, pH 7.4), then pre-stimulated with KCl and loaded as follows: 0.05 mL of IMR32 buffer, 0.05 mL of each compound tested diluted in IMR32 buffer containing 20 μM nitrendipine (Sigma), and 0.1 mL KCl dissolved in IMR32 buffer, plus Fluo-4 were added (3 μM final concentration, Molecular Probes, Eugene, Oreg.). Final test compound concentrations ranged from about 846 μM to about 17 μM, final nitrendipine concentration was 5 μM, and final KCl concentration was 90 mM. After 1 hour, the cells were washed twice with 0.05 mL of each compound tested in nitrendipine-containing IMR32 buffer (no KCl or Fluo-4), and then replaced with 0.1 mL of each compound tested in nitrendipine-containing IMR32 buffer. Plates were then transferred to a Fluorimetric Imaging Plate Reader (FLIPR^96, Molecular Devices, Inc., Sunnyvale, Calif.) for assay. The FLIPR measured basal Fluo-4 fluorescence for 315 seconds (i.e., 5 minutes and 15 seconds), then added 0.1 mL KCl agonist dissolved in IMR32 buffer and measured fluorescence for another 45 seconds. Final test compound concentrations on the cells after FLIPR read ranged from about 846 pM to about 17 μM, final nitrendipine concentration was 5 μM, and final KCl concentration was 90 mM. Data were collected over the entire time course and analyzed using Excel, Graph Pad Prism (version 3.02, Graph Pad, San Diego, Calif.), or an in-house non-linear regression analysis software.

T2 sequence (Q00975 whole entry): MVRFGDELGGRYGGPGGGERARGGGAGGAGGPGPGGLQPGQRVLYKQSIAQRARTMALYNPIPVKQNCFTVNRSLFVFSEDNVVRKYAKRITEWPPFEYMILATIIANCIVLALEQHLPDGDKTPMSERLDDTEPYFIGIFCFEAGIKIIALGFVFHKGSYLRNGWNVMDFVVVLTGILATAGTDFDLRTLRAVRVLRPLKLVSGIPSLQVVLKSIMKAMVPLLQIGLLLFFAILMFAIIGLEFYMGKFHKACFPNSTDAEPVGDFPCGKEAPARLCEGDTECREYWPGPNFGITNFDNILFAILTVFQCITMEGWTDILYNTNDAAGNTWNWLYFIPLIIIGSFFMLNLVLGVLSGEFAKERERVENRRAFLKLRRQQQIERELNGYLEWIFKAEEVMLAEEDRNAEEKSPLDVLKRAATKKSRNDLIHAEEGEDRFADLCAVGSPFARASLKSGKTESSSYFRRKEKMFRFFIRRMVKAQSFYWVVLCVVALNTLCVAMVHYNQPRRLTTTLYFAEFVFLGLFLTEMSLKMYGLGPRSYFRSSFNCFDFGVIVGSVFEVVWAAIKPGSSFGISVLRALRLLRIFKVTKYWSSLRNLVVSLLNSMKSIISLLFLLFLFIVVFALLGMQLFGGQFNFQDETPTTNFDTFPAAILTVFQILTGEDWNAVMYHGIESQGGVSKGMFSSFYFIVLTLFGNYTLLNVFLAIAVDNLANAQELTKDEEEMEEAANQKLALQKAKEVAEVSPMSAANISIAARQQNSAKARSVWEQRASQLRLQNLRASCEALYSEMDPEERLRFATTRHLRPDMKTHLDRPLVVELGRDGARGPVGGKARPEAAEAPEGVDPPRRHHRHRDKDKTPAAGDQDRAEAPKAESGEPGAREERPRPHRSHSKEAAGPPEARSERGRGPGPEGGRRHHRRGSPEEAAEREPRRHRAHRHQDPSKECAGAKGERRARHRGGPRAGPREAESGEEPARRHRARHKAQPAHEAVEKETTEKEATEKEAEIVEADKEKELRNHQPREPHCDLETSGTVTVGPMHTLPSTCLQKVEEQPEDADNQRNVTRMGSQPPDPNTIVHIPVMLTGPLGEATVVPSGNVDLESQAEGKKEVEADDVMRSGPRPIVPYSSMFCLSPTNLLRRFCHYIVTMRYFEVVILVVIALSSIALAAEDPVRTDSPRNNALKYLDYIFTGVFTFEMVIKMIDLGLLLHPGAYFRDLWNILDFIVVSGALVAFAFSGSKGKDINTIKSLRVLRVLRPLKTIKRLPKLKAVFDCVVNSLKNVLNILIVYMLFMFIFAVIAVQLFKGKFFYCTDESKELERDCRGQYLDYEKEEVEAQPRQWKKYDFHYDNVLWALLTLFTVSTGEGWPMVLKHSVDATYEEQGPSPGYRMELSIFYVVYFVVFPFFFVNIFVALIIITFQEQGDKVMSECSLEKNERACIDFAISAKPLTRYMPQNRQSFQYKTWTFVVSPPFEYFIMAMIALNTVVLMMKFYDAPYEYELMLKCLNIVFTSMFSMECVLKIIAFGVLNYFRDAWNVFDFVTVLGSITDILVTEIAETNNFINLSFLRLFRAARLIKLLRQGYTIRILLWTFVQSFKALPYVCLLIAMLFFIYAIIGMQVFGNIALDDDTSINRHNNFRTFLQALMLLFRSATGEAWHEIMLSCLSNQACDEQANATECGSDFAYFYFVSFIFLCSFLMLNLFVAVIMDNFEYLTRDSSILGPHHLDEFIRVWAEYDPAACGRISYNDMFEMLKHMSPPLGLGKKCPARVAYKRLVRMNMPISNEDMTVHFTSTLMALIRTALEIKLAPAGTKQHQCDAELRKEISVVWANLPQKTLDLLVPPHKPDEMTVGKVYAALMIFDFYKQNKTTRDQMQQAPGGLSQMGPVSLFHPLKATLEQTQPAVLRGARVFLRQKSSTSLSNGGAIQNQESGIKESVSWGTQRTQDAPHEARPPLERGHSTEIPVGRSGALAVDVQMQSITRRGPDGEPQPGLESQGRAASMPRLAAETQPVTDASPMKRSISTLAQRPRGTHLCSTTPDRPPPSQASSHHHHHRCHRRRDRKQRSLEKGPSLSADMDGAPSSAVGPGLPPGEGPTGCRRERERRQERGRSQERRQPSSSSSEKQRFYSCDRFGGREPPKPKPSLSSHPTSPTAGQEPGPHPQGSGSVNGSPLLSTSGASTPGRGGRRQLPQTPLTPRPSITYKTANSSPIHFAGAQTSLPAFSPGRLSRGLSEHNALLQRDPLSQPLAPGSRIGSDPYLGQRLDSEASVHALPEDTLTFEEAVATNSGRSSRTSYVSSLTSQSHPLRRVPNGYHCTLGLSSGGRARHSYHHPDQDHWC
T2 sequence (P54289 25-956 partner limits assumed): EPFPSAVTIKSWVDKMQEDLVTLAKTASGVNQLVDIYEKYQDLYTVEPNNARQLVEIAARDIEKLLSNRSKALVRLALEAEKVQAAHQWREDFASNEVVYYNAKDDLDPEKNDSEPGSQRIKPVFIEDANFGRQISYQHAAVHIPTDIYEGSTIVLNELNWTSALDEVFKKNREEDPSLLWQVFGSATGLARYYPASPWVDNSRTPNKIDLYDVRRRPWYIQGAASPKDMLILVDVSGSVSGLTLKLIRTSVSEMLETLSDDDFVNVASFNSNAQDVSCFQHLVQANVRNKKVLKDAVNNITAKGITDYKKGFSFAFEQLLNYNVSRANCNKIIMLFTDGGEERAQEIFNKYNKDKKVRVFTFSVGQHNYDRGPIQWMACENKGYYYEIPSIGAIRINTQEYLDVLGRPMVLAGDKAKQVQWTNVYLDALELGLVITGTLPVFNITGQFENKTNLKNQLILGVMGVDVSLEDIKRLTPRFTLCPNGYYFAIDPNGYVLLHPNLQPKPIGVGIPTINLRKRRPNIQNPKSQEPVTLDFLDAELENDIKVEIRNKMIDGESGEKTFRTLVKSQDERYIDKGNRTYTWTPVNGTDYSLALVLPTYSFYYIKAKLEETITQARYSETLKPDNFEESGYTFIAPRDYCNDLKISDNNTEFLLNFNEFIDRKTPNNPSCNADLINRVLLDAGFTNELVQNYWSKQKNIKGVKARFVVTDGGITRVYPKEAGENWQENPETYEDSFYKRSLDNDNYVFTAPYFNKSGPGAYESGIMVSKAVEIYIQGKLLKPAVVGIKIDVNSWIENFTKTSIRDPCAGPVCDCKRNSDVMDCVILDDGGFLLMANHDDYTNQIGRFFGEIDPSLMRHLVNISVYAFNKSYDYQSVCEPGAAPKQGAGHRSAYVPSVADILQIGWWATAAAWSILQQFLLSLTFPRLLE
T2 sequence (P54289 957-1103 partner limits assumed): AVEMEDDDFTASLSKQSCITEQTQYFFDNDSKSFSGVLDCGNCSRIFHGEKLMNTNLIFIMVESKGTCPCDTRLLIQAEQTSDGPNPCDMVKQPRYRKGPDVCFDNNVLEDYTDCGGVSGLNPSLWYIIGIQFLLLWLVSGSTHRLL
T2 sequence (P54284 whole entry partner): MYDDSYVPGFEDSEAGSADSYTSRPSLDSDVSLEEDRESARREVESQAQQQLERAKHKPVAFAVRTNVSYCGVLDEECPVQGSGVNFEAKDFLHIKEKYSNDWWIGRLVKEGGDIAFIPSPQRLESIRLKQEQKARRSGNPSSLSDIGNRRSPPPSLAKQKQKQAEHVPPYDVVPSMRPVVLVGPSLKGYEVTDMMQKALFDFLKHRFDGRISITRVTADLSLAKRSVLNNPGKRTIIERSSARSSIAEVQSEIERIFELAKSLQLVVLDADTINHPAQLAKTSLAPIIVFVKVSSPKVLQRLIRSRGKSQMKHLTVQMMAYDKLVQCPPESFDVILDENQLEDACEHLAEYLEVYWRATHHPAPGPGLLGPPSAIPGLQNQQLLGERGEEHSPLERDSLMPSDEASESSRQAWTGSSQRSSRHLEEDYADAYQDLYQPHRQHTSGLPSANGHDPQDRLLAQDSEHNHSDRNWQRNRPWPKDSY

In the case of `O=C(CNC1CCN(S(=O)(=O)c2cccc(C(F)(F)F)c2)CC1)Nc1ccc(F)cc1` [Compound 6, N-(4-Fluorophenyl)-2-[1-(3-trifluoromethyl-benzenesulfonyl)-piperidin-4-ylamino]acetamide], the pIC50 in test [1] is less than 4.70; in test [2], 6.34.
`O=C(CNC1CCN(S(=O)(=O)c2cccc(C(F)(F)F)c2)C1)Nc1ccc(F)cc1` (stereo not drawn) [Compound 10, N-(4-Fluorophenyl)-2-[1-(3-trifluoromethylbenzenesulfonyl)-pyrrolidin-3-ylamino]-acetamide]: the pIC50 in test [1] is 5.22; in test [2] it was 6.33.
Turning to `O=C(CN(C1CC1)C1CCN(S(=O)(=O)c2cccc(C(F)(F)F)c2)CC1)Nc1ccc(F)cc1` [Compound 14, 2-{Cyclopropyl-[1-(3-trifluoromethylbenzenesulfonyl)-piperidin-4-yl]amino}-N-(4-fluorophenyl)acetamide], the pIC50 in test [1] is 5.03; in test [2], 6.10.
On to `O=C(CNC1CCN(S(=O)(=O)c2cccc(C(F)(F)F)c2)CC1)Nc1cc(C(F)(F)F)cc(C(F)(F)F)c1` [Compound 18, N-(3,5-Bis-(trifluoromethyl)phenyl)-2-[1-(3-trifluoromethyl-benzenesulfonyl)piperidin-4-ylamino]acetamide], for which the pIC50 in test [1] was less than 4.70; in test [2], 6.13.
`O=C(CC(=O)NC1CCN(S(=O)(=O)c2cccc(C(F)(F)F)c2)CC1)Nc1ccc(F)cc1F` [Compound 23, N-(2,4-Difluorophenyl)-N′-[1-(3-trifluoromethylbenzenesulfonyl)-piperidin-4-yl]malonamide]: the pIC50 in test [2] is 5.89.

In general, pIC50 refers to −log10 of the IC50, conventionally taken in molar units.
